pIC50: −log10 of the molar value.
Molecular target: human TrkA receptor (Homo sapiens (Human), UniProt P04629)
Assay: DiscoverX PathHunter TrkA functional assay (NGF-stimulated U2OS cells)
Type: cell-based
Settings: U2OS cells expressing human TrkA-PK, Shc1-EA and p75NTR; compound 1 h, then NGF at ~80% of maximal response for 3 h; luminescence

Sequence of human TrkA receptor (P04629 33-796): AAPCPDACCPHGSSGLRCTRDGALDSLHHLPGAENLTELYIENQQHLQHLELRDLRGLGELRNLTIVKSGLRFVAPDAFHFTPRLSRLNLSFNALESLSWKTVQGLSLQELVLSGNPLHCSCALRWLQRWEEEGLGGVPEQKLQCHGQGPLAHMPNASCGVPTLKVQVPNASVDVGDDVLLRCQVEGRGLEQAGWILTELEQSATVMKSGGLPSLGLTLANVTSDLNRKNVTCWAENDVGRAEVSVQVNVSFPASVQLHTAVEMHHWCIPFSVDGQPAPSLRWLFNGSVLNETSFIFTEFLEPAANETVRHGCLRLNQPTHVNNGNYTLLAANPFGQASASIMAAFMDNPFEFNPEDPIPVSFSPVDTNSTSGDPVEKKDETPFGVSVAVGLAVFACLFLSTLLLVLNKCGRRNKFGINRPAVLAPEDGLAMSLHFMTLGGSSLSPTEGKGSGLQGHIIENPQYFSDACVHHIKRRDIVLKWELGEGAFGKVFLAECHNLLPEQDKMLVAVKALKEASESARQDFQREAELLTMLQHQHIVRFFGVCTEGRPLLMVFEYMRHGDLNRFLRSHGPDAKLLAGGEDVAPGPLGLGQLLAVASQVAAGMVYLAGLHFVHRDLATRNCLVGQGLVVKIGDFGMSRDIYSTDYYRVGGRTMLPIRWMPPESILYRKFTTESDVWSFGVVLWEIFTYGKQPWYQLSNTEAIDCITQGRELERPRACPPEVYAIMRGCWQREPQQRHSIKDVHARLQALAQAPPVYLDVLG

Structure (SMILES) | pIC50
Cn1ccc(-c2cc(C(=O)Nc3cc4c(nc3-c3ccccc3)CCN(C(=O)CN)C4)ccc2C(F)(F)F)n1 [Example 156, N-(6-glycyl-2-phenyl-5,6,7,8-tetrahydro-1,6-naphthyridin-3-yl)-3-(1-methyl-1H-pyrazol-3-yl)-4-(trifluoromethyl)benzamide] | 9.00
Cn1ccc(-c2cc(C(=O)Nc3cnc(CNC(=O)CO)cc3-c3ccccc3)ccc2C(F)(F)F)n1 [Example 55, N-(6-((2-hydroxyacetamido)methyl)-4-phenylpyridin-3-yl)-3-(1-methyl-1H-pyrazol-3-yl)-4-(trifluoromethyl)benzamide] | 7.85
CN1CCOC(C(=O)NCc2ccc(NC(=O)c3cc(-c4ccn(C)n4)c(C(F)(F)F)cc3F)c(-c3ccccc3)n2)C1 (single isomer, unassigned) [Example 63, (S or R)-N-((5-(2-fluoro-5-(1-methyl-1H-pyrazol-3-yl)-4-(trifluoromethyl)benzamido)-6-phenylpyridin-2-yl)methyl)-4-methylmorpholine-2-carboxamide] | 8.74
Cc1noc(-c2cc(C(=O)Nc3cnc(C)nc3-c3ccccc3)ccc2C(F)(F)F)n1 [Example 30, 3-(3-methyl-1,2,4-oxadiazol-5-yl)-N-(2-methyl-4-phenylpyrimidin-5-yl)-4-(trifluoromethyl)benzamide] | 6.89
Cn1ccc(-c2cc(C(=O)Nc3cnc(CN4CCCOC4=O)nc3-c3ccccc3)c(F)cc2C(F)(F)F)n1 [Example 222, 2-fluoro-5-(1-methyl-1H-pyrazol-3-yl)-N-(2-((2-oxo-1,3-oxazinan-3-yl)methyl)-4-phenylpyrimidin-5-yl)-4-(trifluoromethyl)benzamide] | 9.66
Cn1ccc(-c2cc(C(=O)Nc3cnc(CCO)nc3-c3ccccc3)ccc2C(F)(F)F)n1 [Example 37, N-(2-(2-hydroxyethyl)-4-phenylpyrimidin-5-yl)-3-(1-methyl-1H-pyrazol-3-yl)-4-(trifluoromethyl)benzamide] | 8.40
Cn1ccc(-c2cc(C(=O)Nc3cnc(CN4CCOCC4=O)nc3-c3ccccc3)c(F)cc2C(F)(F)F)n1 [Example 223, 2-fluoro-5-(1-methyl-1H-pyrazol-3-yl)-N-(2-((3-oxomorpholino)methyl)-4-phenylpyrimidin-5-yl)-4-(trifluoromethyl)benzamide] | 8.80
C[C@@H](O)C(=O)NCc1cnc(NC(=O)c2cc(-c3ccn(C)n3)c(C(F)(F)F)cc2F)c(-c2ccccc2)n1 [Example 71, (R)-2-fluoro-N-(5-((2-hydroxypropanamido)methyl)-3-phenylpyrazin-2-yl)-5-(1-methyl-1H-pyrazol-3-yl)-4-(trifluoromethyl)benzamide] | 8.44
O=C(Nc1cc(-c2cccnc2)cnc1-c1ccccc1)c1ccc(C(F)(F)F)cc1 [Example 10, N-(6-phenyl-3,3′-bipyridin-5-yl)-4-(trifluoromethyl)benzamide] | 5.80
O=C(Nc1cnc(CO)nc1-c1ccccc1)c1ccc(C(F)(F)F)c(-c2cc[nH]n2)c1 [Example 40, N-(2-(hydroxymethyl)-4-phenylpyrimidin-5-yl)-3-(1H-pyrazol-3-yl)-4-(trifluoromethyl)benzamide] | 7.92
Cn1ccc(-c2cc(C(=O)Nc3cc4c(nc3-c3ccccc3)CNC4=O)c(F)cc2C(F)(F)F)n1 [Example 161, 2-fluoro-5-(1-methyl-1H-pyrazol-3-yl)-N-(5-oxo-2-phenyl-6,7-dihydro-5H-pyrrolo[3,4-b]pyridin-3-yl)-4-(trifluoromethyl)benzamide] | 9.42
O=C(Nc1cnc(CO)nc1-c1ccccc1)c1ccc(C(F)(F)F)c(-c2cc[nH]n2)c1 [Example 36, N-(2-(hydroxymethyl)-4-phenylpyrimidin-5-yl)-3-(1H-pyrazol-3-yl)-4-(trifluoromethyl)benzamide] | 7.62
Cn1ccc(-c2cc(C(=O)Nc3cc4c(nc3-c3ccccc3)CCN(CC(N)=O)C4)ccc2C(F)(F)F)n1 [Example 140, N-(6-(2-Amino-2-oxoethyl)-2-phenyl-5,6,7,8-tetrahydro-1,6-naphthyridin-3-yl)-3-(1-methyl-1H-pyrazol-3-yl)-4-(trifluoromethyl)benzamide] | 8.74
Cn1ccc(-c2cc(C(=O)Nc3cnc(CC(N)=O)nc3-c3ccccc3)c(F)cc2C(F)(F)F)n1 [Example 99, N-(2-(2-Amino-2-oxoethyl)-4-phenylpyrimidin-5-yl)-2-fluoro-5-(1-methyl-1H-pyrazol-3-yl)-4-(trifluoromethyl)benzamide] | 9.23
Cn1ccc(-c2cc(C(=O)Nc3cnc(CNC(=O)CO)nc3-c3ccccc3)ccc2C(F)(F)F)n1 [Example 50, N-(2-((2-hydroxyacetamido)methyl)-4-phenylpyrimidin-5-yl)-3-(1-methyl-1H-pyrazol-3-yl)-4-(trifluoromethyl)benzamide] | 8.44
Cn1ccc(-c2cc(C(=O)Nc3cnc(N4CCNC4=O)nc3-c3ccccc3)c(F)cc2C(F)(F)F)n1 [Example 211, 2-fluoro-5-(1-methyl-1H-pyrazol-3-yl)-N-(2-(2-oxoimidazolidin-1-yl)-4-phenylpyrimidin-5-yl)-4-(trifluoromethyl)benzamide] | 8.59

Structure (SMILES) | pIC50
Cn1ccc(-c2cc(C(=O)Nc3cc4c(nc3-c3ccccn3)CCNC4=O)c(F)cc2C(F)(F)F)n1 [Example 141, 2-Fluoro-5-(1-methyl-1H-pyrazol-3-yl)-N-(5-oxo-2-(pyridin-2-yl)-5,6,7,8-tetrahydro-1,6-naphthyridin-3-yl)-4-(trifluoromethyl)benzamide] | 7.85
Cn1ccc(-c2cc(C(=O)Nc3cnc(CC4CCNC4=O)nc3-c3ccccc3)c(F)cc2C(F)(F)F)n1 (single isomer, unassigned) [Example 191, (R or S)-2-Fluoro-5-(1-methyl-1H-pyrazol-3-yl)-N-(2-(2-oxopyrrolidin-3-yl)methyl)-4-phenylpyrimidin-5-yl)-4-(trifluoromethyl)benzamide] | 8.35
Cn1ccc(-c2cc(C(=O)Nc3cc(S(C)(=O)=O)cnc3-c3ccccc3)c(F)cc2C(F)(F)F)n1 [Example 194, 2-Fluoro-5-(1-methyl-1H-pyrazol-3-yl)-N-(5-(methylsulfonyl)-2-phenylpyridin-3-yl)-4-(trifluoromethyl)benzamide] | 8.59
Cc1ccccc1-c1nc(CC(N)=O)ncc1NC(=O)c1cc(-c2ccn(C)n2)c(C(F)(F)F)cc1F [Example 117, N-(2-(2-amino-2-oxoethyl)-4-(o-tolyl)pyrimidin-5-yl)-2-fluoro-5-(1-methyl-1H-pyrazol-3-yl)-4-(trifluoromethyl)benzamide] | 8.31
CCn1c(Cc2ncc(NC(=O)c3cc(-c4ccn(C)n4)c(C(F)(F)F)cc3F)c(-c3ccccc3)n2)n[nH]c1=O [Example 180, N-(2-((4-ethyl-5-oxo-4,5-dihydro-1H-1,2,4-triazol-3-yl)methyl)-4-phenylpyrimidin-5-yl)-2-fluoro-5-(1-methyl-1H-pyrazol-3-yl)-4-(trifluoromethyl)benzamide] | 8.49
Cn1ccc(-c2cc(C(=O)Nc3cnc(CNC(=O)CS(C)(=O)=O)nc3-c3ccccc3)c(F)cc2C(F)(F)F)n1 [Example 67, 2-fluoro-5-(1-methyl-1H-pyrazol-3-yl)-N-(2-((2-(methylsulfonyl)acetamido)methyl)-4-phenylpyrimidin-5-yl)-4-(trifluoromethyl)benzamide] | 8.80
Cc1cc(-c2ccccc2NC(=O)c2cccc(-c3nccs3)c2)n[nH]1 [Example 7, N-[2-(5-methyl-1H-pyrazol-3-yl)phenyl]-3-(1,3-thiazol-2-yl)benzamide] | 5.40
Cn1ccc(-c2cc(C(=O)Nc3cnc(COC(N)=O)nc3-c3ccccc3)c(F)cc2C(F)(F)F)n1 [Example 80, (5-(2-Fluoro-5-(1-methyl-1H-pyrazol-3-yl)-4-(trifluoromethyl)benzamido)-4-phenylpyrimidin-2-yl)methyl carbamate] | 9.31
Cc1ncc(NC(=O)c2cc(-c3ccn(C)n3)c(C(F)(F)F)cc2F)c(-c2ccccc2CO)n1 [Example 136, 2-Fluoro-N-(4-(2-(hydroxymethyl)phenyl)-2-methylpyrimidin-5-yl)-5-(1-methyl-1H-pyrazol-3-yl)-4-(trifluoromethyl)benzamide] | 8.36
Cn1ccc(-c2cc(C(=O)Nc3ccc(CNC(=O)C(O)CO)nc3-c3ccccc3)c(F)cc2C(F)(F)F)n1 (single isomer, unassigned) [Example 61, (S or R)-N-(6-((2,3-dihydroxypropanamido)methyl)-2-phenylpyridin-3-yl)-2-fluoro-5-(1-methyl-1H-pyrazol-3-yl)-4-(trifluoromethyl)benzamide] | 9.19
CN(Cc1ccc(NC(=O)c2cc(-c3ccn(C)n3)c(C(F)(F)F)cc2F)c(-c2ccccc2)n1)C(=O)NCCO [Example 79, 2-fluoro-N-(6-((3-(2-hydroxyethyl)-1-methylureido)methyl)-2-phenylpyridin-3-yl)-5-(1-methyl-1H-pyrazol-3-yl)-4-(trifluoromethyl)benzamide] | 8.96
Cn1ccc(-c2cc(C(=O)Nc3cnc(Cn4cccnc4=O)nc3-c3ccccc3)c(F)cc2C(F)(F)F)n1 [Example 225, 2-fluoro-5-(1-methyl-1H-pyrazol-3-yl)-N-(2-((2-oxopyrimidin-1(2H)-yl)methyl)-4-phenylpyrimidin-5-yl)-4-(trifluoromethyl)benzamide] | 8.92
NC(=O)N1CCc2nc(-c3ccccc3)c(NC(=O)c3cc(-c4ncccn4)c(C(F)(F)F)cc3F)cc2C1 [Example 155, 3-(2-fluoro-5-(pyrimidin-2-yl)-4-(trifluoromethyl)benzamido)-2-phenyl-7,8-dihydro-1,6-naphthyridine-6(5H)-carboxamide] | 8.64
CN(C)C(=O)Cc1ncc(NC(=O)c2cc(-c3ccn(C)n3)c(C(F)(F)F)cc2F)c(-c2ccccc2)n1 [Example 100, N-(2-(2-(Dimethylamino)-2-oxoethyl)-4-phenylpyrimidin-5-yl)-2-fluoro-5-(1-methyl-1H-pyrazol-3-yl)-4-(trifluoromethyl)benzamide] | 8.92
Cc1ncc(NC(=O)c2ccc(C(F)(F)F)c(-c3ccn(C)n3)c2)c(-c2ccc(F)cc2)n1 [Example 31, N-[4-(4-fluorophenyl)-2-methylpyrimidin-5-yl]-3-(1-methyl-1H-pyrazol-3-yl)-4-(trifluoromethyl)benzamide] | 8.26

— patent publication US9815846B2 (Merck Sharp & Dohme Corp., priority 2014, dated 2017)
